From US9370529B2, “Tannin inhibitors of HIV” (priority 2012, dated 2016)
pIC50: −log10 of the molar value.

Legend:
[1] = Cell-viability study (ATPLite Assay); assay type: cell-based; details: human; HeLa37 cells, 40 h after treatment initiation
Protocol: HeLa37 cells were plated and treated with IA or IB as described above. Cell viability was monitored at 40 h after treatment initiation by ATPLite Assay (Packard Biosciences) per manufacturer's instructions.

[2] = system: CXCR4 tropic HIV NL4-3; assay: HIV-infection study in HeLa37 cells (HIV antigen-positive cell count, % control); assay type: cell-based, HIV-1; details: for TI (therapeutic index, cytotoxicity/antiviral activity): CC50/IC50; for pIC50: Human immunodeficiency virus 1, NL43, HeLa37 cells, 40 h, MOI=0.01, FIG. 1/FIG. 2, read-out: IC50 (anti-HIV activity)
Protocol: Stocks of HIV-1 were generated by transfecting a 150 cm plate of 80% confluent HEK 293T cells with 75 μg of the HIV molecular clone pNL4-3 by using the CaPO4 procedure of F. L. Graham et al., J. Gen. Viol., 36, 59 (1977). Supernatants were collected at 48-h post-transfection, clarified to remove cell debris and frozen at −80° C. until needed. Virus production was assessed by reverse transcriptase activity in the viral stocks and by the single round of infection assay in HeLa37 cells described below. RT assays were performed as described by R. L. Wiley, PNAS USA, 83, 5038 (1986).
(§1) All extracts or fractions were resuspended in DMSO. 2.5×10^2 infectious particles of HIV (MOI=0.01) were combined with the concentrations of IA or IB noted in the figures. The amount of DMSO was adjusted so that equivalent concentrations of DMSO were used in all wells. […] The tannin and HIV mixture was added to 2.5×10^4 cells/well of HeLa37 cells in a 48-well format. The cells were maintained for 40 h at 37° C. in a CO2 incubator. Cells were fixed in 75% acetone/25% water and immunostained for HIV antigens with human anti-HIV antisera (1:500) followed by HRP-conjugated goat anti-human IgG (1:500). 3-amino-9-ethyl-carbazole was used as the horse radish peroxidase substrate. Plates were dried and wells were counted for the number of HIV antigen-positive cells.

[3] = system: CCR5 tropic HIV AD8; assay: HIV-infection study in HeLa37 cells, CCR5 tropic virus; assay type: cell-based; details: FIG. 2; equivalent concentrations
Protocol: as §1

Structure (SMILES) | CC50 at 40 h [1] [nM] | TI (therapeutic index, cytotoxicity/antiviral activity) [2] | pIC50 [2] | Inhibition of CCR5 (AD8) tropic HIV strain [3] | Inhibition of CXCR4 (NL4-3) tropic HIV strain ([2]; FIG. 2) | Enhancement of the antiviral activity of AMD3100 ([2]; combination with 3 μM AMD3100, increasing concentrations of IB, HIV NL-4-3, FIG. 3)
CO[C@@H]1OC2COC(=O)c3cc(O)c(O)c(O)c3-c3c(cc(O)c(O)c3O)C(=O)O[C@H]2C(O)C1O (stereo partly drawn) [Tannin IA, (11aR,13S,14R,15R,15aS)-2,3,4,5,6,7,14,15-octahydroxy-13-methoxy-11,11a,13,14,15,15a-hexahydrodibenzo[g,i]pyrano[3,2-b][1,5]dioxacycloundecine-9,17-dione] | ~100000 | ~909 | ~6.96 |  |  | 
CO[C@@H]1OC2COC(=O)c3cc(O)c(O)c(O)c3-c3c(cc(O)c(O)c3O)C(=O)O[C@H]2C(OC(=O)c2cc(O)c(O)c(O)c2)C1OC(=O)c1cc(O)c(O)c(O)c1 (stereo partly drawn) [Tannin IB, (11aR,13S,14R,15S,15aR)-2,3,4,5,6,7-hexahydroxy-13-methoxy-9,17-dioxo-9,11,11a,13,14,15,15a,17-octahydrodibenzo[g,i]pyrano[3,2-b][1,5]dioxacycloundecine-14,15-diyl-bis (3,4,5-trihydroxybenzoate)] | > 100000 | about 900 | ~6.92 | effectively able to inhibit | effectively able to inhibit | more than a log
